# Values of other authors in US8303934B2, “Methods and compositions of [32P]-labeled adenine nucleotides for the treatment of atherosclerosis, vascular arterial diseases and coronary artery diseases” (priority 2011, dated 2012).
# Tested on: established human xenographed tumors
# Conditions: established human xenografted tumors in athymic mice; low-level doses
compound,measurement,value
"Nc1ncnc2c1ncn2[C@@H]1O[C@H](COP(=O)(O)OP(=O)(O)OP(=O)(O)O)[C@@H](O)[C@H]1O [[32P]ATP, [32P]adenosine 5′-triphosphate]",activity as an anti-tumor cytotoxic agent,very active
